Assay results as given in ChEMBL document CHEMBL1201862, “PubChem BioAssay data set” (2004).
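Dose response: 5 concentrations. Exposure: 48 h. Format: 96-well plates. Endpoint: linear interpolation; highest concentration if not reached. The concentration for 50% growth inhibition is given as GI50.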 Activity calls are given as the source filed them. Cut-off read from the data, not from the text of the source: active = GI50 up to about 1.1 µM and inactive = higher.

How the values were obtained:
Test in all cases: NCI-60 cell line screen, 48 h
[1] = system: HT-29
[2] = system: U-251
[3] = system: ACHN
[4] = system: UO-31
[5] = system: K562
[6] = system: KM12
[7] = system: OVCAR-5
[8] = system: OVCAR-8
[9] = system: SK-MEL-5
[10] = system: SW-620
[11] = system: SK-OV-3
[12] = system: M14
[13] = system: HOP-92
[14] = system: HCC 2998
[15] = system: SK-MEL-2

Measured: GI50

O=C(O)/C(Cl)=C(\Cl)C(=O)NC1C2CC3CC(C2)CC1C3 (centres undefined)
inactive: [1] > 100 µM | [2] > 100 µM | [3] > 100 µM | [4] > 100 µM | [5] > 100 µM | [6] 9.64 µM | [7] > 100 µM | [8] > 100 µM | [9] > 100 µM | [10] > 100 µM | [11] > 100 µM | [12] > 100 µM | [13] > 100 µM | [14] > 100 µM

C/C(=C\CC/C=C(\C)CC/C=C(\C)CCC1SC1(C)C)CC/C=C(\C)CCC1OC1(C)C (centres undefined)
inactive: [15] > 100 µM | [1] > 100 µM | [2] > 100 µM | [3] > 100 µM | [4] > 100 µM | [5] > 100 µM | [6] > 100 µM | [8] > 100 µM | [9] > 100 µM | [10] > 100 µM | [11] > 100 µM | [12] > 100 µM | [13] > 100 µM | [14] > 100 µM

CNC(=S)NC1CCCCC1NC(=S)NC (centres undefined)
inactive: [15] > 100 µM | [1] > 100 µM | [2] > 100 µM | [3] > 100 µM | [4] > 100 µM | [5] > 100 µM | [6] > 100 µM | [7] > 100 µM | [8] > 100 µM | [9] > 100 µM | [10] > 100 µM | [11] > 100 µM | [12] > 100 µM | [13] > 100 µM | [14] > 100 µM

O=C(N/C(=C\c1cccc([N+](=O)[O-])c1)c1nc2ccccc2[nH]1)c1ccccc1
inactive: [15] 66.7 µM | [1] 28.9 µM | [2] 44 µM | [3] 51.4 µM | [4] 16.6 µM | [5] 50.5 µM | [6] 69 µM | [7] 63.4 µM | [8] 30.3 µM | [9] 41.1 µM | [10] > 100 µM | [11] > 100 µM | [12] 66.8 µM | [13] 40.6 µM | [14] 94.4 µM

CC12CC3C(CC1SCC(=O)O2)C3(C)C (centres undefined)
inactive: [15] > 100 µM | [1] > 100 µM | [2] > 100 µM | [3] > 100 µM | [4] > 100 µM | [5] > 100 µM | [6] > 100 µM | [7] > 100 µM | [8] > 100 µM | [9] > 100 µM | [11] > 100 µM | [12] > 100 µM | [13] > 100 µM | [14] > 100 µM

CC(C)C(/C=C/c1ccc(Br)cc1)=N\NC(N)=O
inactive: [15] > 100 µM | [1] > 100 µM | [2] > 100 µM | [3] > 100 µM | [4] 18.2 µM | [5] > 100 µM | [6] > 100 µM | [7] > 100 µM | [8] > 100 µM | [9] > 100 µM | [10] > 100 µM | [11] > 100 µM | [12] > 100 µM | [13] > 100 µM | [14] 12.3 µM

COC(=O)c1nc(-c2ccc(Cl)c(Cl)c2)nc2ccc(Cl)cc12
inactive: [15] > 100 µM | [1] > 100 µM | [2] 43.7 µM | [3] 44.6 µM | [4] 33.6 µM | [5] > 10 µM | [6] > 100 µM | [7] 27.4 µM | [8] 47.4 µM | [9] > 100 µM | [10] > 100 µM | [11] 20.6 µM | [13] 10.8 µM | [14] > 100 µM

Cc1cn(C2CC(OC3CCCCO3)C(CO)O2)c(=O)[nH]c1=O (centres undefined)
inactive: [15] > 100 µM | [1] > 100 µM | [2] > 100 µM | [3] > 100 µM | [4] > 100 µM | [5] > 100 µM | [6] > 100 µM | [7] > 100 µM | [8] > 100 µM | [10] > 100 µM | [11] > 100 µM | [12] > 100 µM | [13] > 100 µM | [14] > 100 µM

CC(C)(C)NC(=O)NC12CC3CC(CC(F)(C3)C1)C2
inactive: [15] > 100 µM | [1] > 100 µM | [2] > 100 µM | [3] > 100 µM | [4] > 100 µM | [5] > 100 µM | [6] > 100 µM | [7] > 100 µM | [8] > 100 µM | [10] > 100 µM | [11] > 100 µM | [12] > 100 µM | [13] > 100 µM | [14] > 100 µM

CN(C)CC1CCC/C1=N\O (centres undefined)
inactive: [15] > 100 µM | [1] > 100 µM | [2] > 100 µM | [3] > 100 µM | [4] > 100 µM | [5] > 100 µM | [7] > 100 µM | [8] > 100 µM | [9] > 100 µM | [10] > 100 µM | [11] > 100 µM | [12] > 100 µM | [13] > 100 µM | [14] > 100 µM

CC(CC(=O)N1C(=O)C(C)(C)[C@@H](O)[C@H]1CC(C)C(Cl)(Cl)Cl)C(Cl)(Cl)Cl (some centres undefined)
inactive: [1] > 100 µM | [2] > 100 µM | [3] > 100 µM | [4] > 100 µM | [5] > 100 µM | [6] > 100 µM | [8] > 100 µM | [9] > 100 µM | [10] > 100 µM | [11] > 100 µM | [12] > 100 µM | [13] > 100 µM | [14] > 100 µM

COC(=O)C1=C(c2cc(OC)c(OC)c(OC)c2)OC(c2ccc3c(c2)OCO3)C1 (centres undefined)
inactive: [1] 27.2 µM | [2] 19.6 µM | [3] 26.3 µM | [4] 15.5 µM | [5] 9.48 µM | [6] 13.2 µM | [7] 64.4 µM | [8] 37.9 µM | [9] 19.1 µM | [10] 18.1 µM | [11] 45.5 µM | [12] 29.4 µM | [13] 24.8 µM | [14] 28.4 µM

O=C(CCc1n[nH]c(=S)o1)Nc1cc(Cl)ccc1Cl
inactive: [1] 52.8 µM | [2] 34.4 µM | [3] 61.1 µM | [4] > 100 µM | [5] 23.9 µM | [6] > 100 µM | [7] > 100 µM | [8] > 100 µM | [9] > 100 µM | [10] 15.3 µM | [11] > 100 µM | [12] > 100 µM | [13] > 100 µM | [14] > 100 µM

C[Si](C)(C)/C=C\CCO
inactive: [15] > 100 µM | [1] > 100 µM | [2] > 100 µM | [3] > 100 µM | [4] > 100 µM | [5] > 100 µM | [6] > 100 µM | [7] > 100 µM | [8] > 100 µM | [9] > 100 µM | [10] > 100 µM | [11] > 100 µM | [12] > 100 µM | [13] > 100 µM | [14] > 100 µM
